Results from patent US5783402A, “Method of identifying ligands and anatgonists of G-protein coupled receptor” (The United States of America as represented by the …, priority 1996, dated 1998).

What was measured:
[1] = test system: rat cannabinoid receptor; test: Inhibition of forskolin-mediated induction of β-galactosidase in cannabinoid receptor transfected LVIP2.OZc cells; type: cell-based; settings: 1 μM CP55940, 0.5 μM forskolin, IBMX, 6 hours
Experimental: Cells were exposed for 6 hours to medium containing 0.5 mM IBMX, 0.5 mM BSA and 0.5 μM forskolin ±1 μM CP55940.
One hundred microliters of medium containing IBMX/ascorbic acid or forskolin (1 μM)/IBMX/ascorbic acid were added to control wells. […] Each set of conditions was carried out in quadruplicate. After an eight hour exposure to ligand the cells were washed with 200 μl phosphate buffered saline and β-galactosidase activity was assayed.
β-Galactosidase microassay. β-galactosidase activity was measured with a microplate reader (Molecular Devices, Palo Alto).
All the steps in the microassay were carried out at room temperature. The assay buffer is composed of 100 mM sodium phosphate, 2 mM MgSO4, 0.1 mM MnCl2, pH 8.0. The adherent cells were washed with PBS, the plate drained and 25 μl/well of hypotonic lysis buffer added to each well, (dilute 1 part buffer with 9 parts water). […] After an additional 10 minutes, 24 μl of ONPG (4 mg/ml in assay buffer; prepared daily) was added, and the optical density per well at 405 nm was determined with a plate reader. Readings were taken through 1.5 OD at 405 nm, within the linear portion of the color development. The initial rates, expressed as mOD/minute, are linearly related to β-galactosidase enzyme concentration over an enzyme concentration range of 0.1 to 100 mU (one unit hydrolyzes one micromole of ONPG per minute at 25 degrees, pH 7.5).

[2] = test system: endogenous receptors for adenosine in LVIP2.OZc cells; test: β-galactosidase (ONPG) induction in untransfected LVIP2.OZc cells by NECA (endogenous adenosine receptors); type: cell-based, mouse
Experimental: (§1) FIG. 1. Detection of β-galactosidase of color development of o-nitrophenol. LVIP2.OZc cells were exposed for 8 hours to control medium (containing 0.5 mM IBMX) (.quadrature.), or control medium containing 0.5 μM forskolin (.cndot.), or control medium containing 1 μM (.box-solid.) or 10 NECA (.tangle-solidup.). After cell lysis and addition of the substrate ONPG, enzyme activity was measured as optical density at 405 nm at various time intervals. Data are mean±S.D. taken from one experiment that is representative of several.
(§2) FIG. 2. Induction of β-galactosidase as a response to length of ligand exposure. LVIP2.OZc cells were incubated for 1, 2, 4, 6, 8, 12, 15 and 18 hours in control medium (containing 0.5 mM IBMX) (.quadrature.), or control medium containing 0.5 μM forskolin (.cndot.), or control medium containing 1 μM NECA (.box-solid.), or control medium containing 1 μM PGE2 (.tangle-solidup.). Data are mean±S.D. from one representative experiment.
(§3) FIG. 3. Induction of β-galactosidase as a response to different doses of ligands. LVIP2.OZc cells were treated for 8 hours with control medium (containing 0.5 mM IBMX), and 0.1 or 0.2 or 0.5 or 1 μM forskolin (.cndot.), control medium and 0.1 or 0.5 or 1 or 10 μM NECA (.box-solid.), control medium containing 0.1 or 0.5 or 1 or 10 μM PGE2 (.tangle-solidup.). Data are mean±S.D. from a representative experiment.
(§4) Care should be taken to avoid foaming.
Therefore, a quantitative assay was developed for the cAMP-mediated increase in β-galactosidase activity. This assay was performed in 96 well plates after solubilization of the cells and incubation with the substrate ONPG. Thus, the change in optical density over a defined period of time was directly proportional to the level of β-galactosidase activity. The optical density increased linearly with time up to 1.5. The LVIP2.OZc cells were determined to contain endogenous […] -coupled receptors for PGE (prostaglandin E2) and adenosine. In pilot studies, untransfected cells were treated for 8 hours with IBMX in the presence or absence of NECA [5'-(N-ETHYLCARBOXAMIDO)-ADENOSINE, adenosine A2 receptor agonist], or forskolin, to increase intracellular cAMP levels (FIG. 1). […] The enzyme levels generated by 1 μM NECA, 10 μM NECA, and 0.5 μM forskolin were determined to be 8, 30, and 48 -fold higher, respectively, than in the IBMX control cells. The differences were discernible by visual examination after 3 to 6 hours.
In pilot studies, cells were exposed to IBMX in the presence or absence for forskolin (0.5 μM), NECA (1 μM), or prostaglandin E2 (1 μM) for 2, 4, 6, 8, 15, or 18 hours and their β-galactosidase activities measured. […] Dose-response data (FIG. 3) were obtained by treating cells with forskolin, NECA, or PGE2 for 8 hours. […]

[3] = test system: endogenous receptors for PGE (prostaglandin E2) in LVIP2.OZc cells; test: β-galactosidase (ONPG) induction in untransfected LVIP2.OZc cells by PGE2 (endogenous PGE receptors); type: cell-based, mouse; settings: 8 hours, IBMX
Experimental: as §2
as §3, with “Data are mean±S.D. from a representative experiment.” left out
(§5) Therefore, a quantitative assay was developed for the cAMP-mediated increase in β-galactosidase activity. […] The LVIP2.OZc cells were determined to contain endogenous […] -coupled receptors for PGE (prostaglandin E2) and adenosine. […] The enzyme levels generated by 1 μM NECA, 10 μM NECA, and 0.5 μM forskolin were determined to be 8, 30, and 48 -fold higher, respectively, than in the IBMX control cells. […]
(§6) In pilot studies, cells were exposed to IBMX in the presence or absence for forskolin (0.5 μM), NECA (1 μM), or prostaglandin E2 (1 μM) for 2, 4, 6, 8, 15, or 18 hours and their β-galactosidase activities measured. […]

[4] = test system: dopamine D2L receptor; settings: 10 μM agonist, 0.5 μM forskolin, IBMX, 6 hours
Description: Data are mean±S.D. from one representative experiment. […] Data are mean±S.D. from one representative experiment. […] Data are mean±S.D. from one representative experiment.
Transfection of cells. Cells were transfected by the calcium phosphate transfection protocol of Chen and Okayama. For each plasmid DNA preparation, the amount of DNA required for formation of an optimum calcium phosphate-DNA precipitate varies; thus, a dose response study is desirable. […]
β-Galactosidase microassay. β-galactosidase activity was measured with a microplate reader (Molecular Devices, Palo Alto). […]
All the steps in the microassay were carried out at room temperature. […] After an additional 10 minutes, 24 μl of ONPG (4 mg/ml in assay buffer; prepared daily) was added, and the optical density per well at 405 nm was determined with a plate reader. Readings were taken through 1.5 OD at 405 nm, within the linear portion of the color development. The initial rates, expressed as mOD/minute, are linearly related to β-galactosidase enzyme concentration over an enzyme concentration range of 0.1 to 100 mU (one unit hydrolyzes one micromole of ONPG per minute at 25 degrees, pH 7.5). […]

[5] = test system: LVIP2.OZc cells; test: β-galactosidase (ONPG) induction in untransfected LVIP2.OZc cells by forskolin; type: cell-based, mouse; settings: 8 hours
Experimental: as §1, §2, §3, §4, §5, §6

[6] = test system: LVIP2.OZc cells; test: X-gal staining of LVIP2.OZc cells (blue positive cells) after forskolin + IBMX; type: cell-based, mouse; settings: forskolin 5 μM + IBMX 0.5 mM, 6 to 18 hours
Experimental: Hygromycin-resistant Ltk^- clones were screened for induction of β-galactosidase after addition of forskolin (10 μM) and IBMX (0.5 μM).
In preliminary experiments, forskolin (5 μM) and IBMX (0.5 mM) was used to increase cyclic AMP levels. […] Next, the cells were transfected with human β2 -adrenergic receptor cDNA in the pcD expression vector. […] Ascorbic acid was added to prevent oxidation of isoproterenol.

`CCCCCCC(C)(C)c1ccc([C@@H]2C[C@H](O)CC[C@H]2CCCO)c(O)c1` [CP55940] was tested, and the “decrease of forskolin stimulated activity” value [1] was 15%.
With `CCNC(=O)[C@H]1O[C@@H](n2cnc3c(N)ncnc32)[C@H](O)[C@@H]1O` [NECA, 5'-(N-ETHYLCARBOXAMIDO)-ADENOSINE] the “enzyme level relative to IBMX control cells” value ([2]; 1 μM NECA, 8 hours, IBMX) was 8 -fold, the “concentration required to achieve maximum enzyme induction” value ([2]; 8 hours, IBMX) was 10 µM and the “β-galactosidase activity versus IBMX-treated control cells (in words)” value ([2]; 8 hours, IBMX) was “considerably higher levels”. For the same compound, the “enzyme level relative to IBMX control cells” value ([2]; lvip2.ozc cells, 8 h, 10 µM) was 30 -fold.
In the case of `CCCCC[C@H](O)/C=C/[C@H]1[C@H](O)CC(=O)[C@@H]1C/C=C\CCCC(=O)O` [PGE2, prostaglandin E2], the “concentration required to achieve maximum enzyme induction” value [3] is reported as 10 µM.
With `NCCc1ccc(O)c(O)c1` [dopamine] the “inhibition of forskolin-stimulated increase of β-galactosidase activity” value [4] was “Significant inhibition”.
For `C=C[C@@]1(C)CC(=O)[C@]2(O)[C@@]3(C)[C@@H](O)CCC(C)(C)[C@@H]3[C@H](O)[C@H](OC(C)=O)[C@@]2(C)O1` [forskolin], the “β-galactosidase activity versus IBMX-treated control cells (in words)” value [5] was “considerably higher levels”, the “concentration producing maximum effect” value ([5]; IBMX) was 0.5 µM and the fold induction at 0.5 µM ([5]; Mus musculus, 0.5 μM forskolin, IBMX, read-out: enzyme level relative to IBMX control cells) was 48. The “cells that developed a blue color” value [6] was “More than 90%”.
